Assay results published in patent US20230190707A1, “COMPOSITIONS AND METHODS FOR ENHANCING CANCER IMMUNOTHERAPY” (FRED HUTCHINSON CANCER CENTER, priority 2020, published 2023).

What was measured:
MC38 tumors = assay: Therapeutic treatment with splicing compounds and anti-PD1, MC38 tumors; type: in vivo, mouse; details: three months following tumor implantation
Protocol: Animals were subcutaneously engrafted on bilateral flanks with tumor cells (MC38 1×10^6, B16-F10 0.5×10^6 and LLC 0.25×10^6 cells unless otherwise specified) on day 0, and treated continuously with splicing inhibitors (MS-023 50 mg/kg i.p., indisulam 25 mg/kg i.v. or vehicle) daily for 5 of 7 weekly days starting from day +3 of tumor challenge. […] Mice were weighed weekly for weight-based drug dosing.

MC38 cells [1] = assay: In vitro growth of MC38 cells after MS-023 treatment and washout; type: cell-based, mouse; details: 5 μM for 96 hours
Protocol: (§1) Unless otherwise specified, cell lines were treated with splicing inhibitors at the indicated concentrations for 96 hours in vitro, harvested and washed three times with PBS in excess to remove all drug, and then used for downstream analyses and/or subsequent studies, including phenotyping, RNA-seq analyses, continued growth in vitro, or tumor challenge in vivo into syngeneic animals.

MC38 cells [2] = assay: In vivo tumor challenge with ex vivo MS-023-treated MC38 cells; parameters: species or system mouse; details: MC38 cells treated 5 μM for 96 hours
Protocol: as §1
(§2) Unless otherwise specified, syngeneic B6 or Balb/c mice were engrafted subcutaneously on bilateral flanks with MC38, B16-F10, CT26 or LLC tumor cells at the following doses: MC38 10^6 cells, B16-F10 0.5×10^6 cells, CT26 0.25×10^6 cells, LLC 0.25×10^6 cells. Tumors were measured serially twice or three times weekly and tumor volumes were estimated by length×width×height. Animals were monitored daily for survival and weighed twice weekly. Experimental endpoints mandating euthanasia were approved by the IACUC and included: animal lethargy, severe kyphosis or evidence of pain, difficulty with ambulation or feeding, tumor ulceration>1 cm or bleeding tumor, evidence of infected tumor, tumor volumes exceeding 2.5 cm^3, or animal total body weight loss>10% from baseline.

B16-F10 cells = assay: Engraftment of indisulam-treated B16-F10 cells into hosts with immune perturbations or with B2m knockout; type: in vivo, mouse
Excerpt: B16-F10, CT26.WT (CT26), and LLC cells were obtained from ATCC (Cat. CRL-6475, CRL-2638, and CRL-1642 respectively). MB49 cells were obtained from MilliporeSigma (Cat. SCC148, Burlington, Mass.); MC38 cells were obtained from Kerafast (Cat. ENH204-FP, Boston, Mass.). B16-F10 and MC38 cells expressing chicken ovalbumin (B16ova and MC38ova) were a kind gift of Jeff Ravetch (Rockefeller University, New York, N.Y.). To generate β2 microglobulin deficient cell lines for in vitro experiments, four candidate sgRNAs for mouse β2microglobulin (#1 […] (SEQ ID NO:2), #2 […] (SEQ ID NO:3), #3 […] (SEQ ID NO:4), #4 […]) (SEQ ID NO:5), or nontargeting control ([…]) (SEQ ID NO:6) were cloned into pSpCas9(BB)-2A-Puro (PX459) as previously described (Ran, F. A., et al. (2013). Genome engineering using the CRISPR-Cas9 system. Nat Protoc 8, 2281-2308, incorporated herein by reference in its entirety) and used to engineer deficient MC38, B16-F10, and CT26 cell lines via transfection using XtremeGene 9 reagent as per manufacturer's instructions (MilliporeSigma Cat. 6365809001) followed by puromycin selection at 10 μg/mL for three days. Polyclonal cell populations were obtained by flow sorting for H-2K^b/D^b and P2 microglobulin double-negative cells, and gene knockout further confirmed by stimulating a culture of these sorted cells for 48 hours with 10 U/mL mouse IFNγ and analyzing for the same markers. For in vivo experiments, lentiCas9-Blast was used to generate Cas9-expressing B16-F10 cells. […]
Unless otherwise specified, syngeneic B6 or Balb/c mice were engrafted subcutaneously on bilateral flanks with MC38, B16-F10, CT26 or LLC tumor cells at the following doses: MC38 10^6 cells, B16-F10 0.5×10^6 cells, CT26 0.25×10^6 cells, LLC 0.25×10^6 cells. Tumors were measured serially twice or three times weekly and tumor volumes were estimated by length×width×height. Animals were monitored daily for survival and weighed twice weekly. […]

[3] = tested on: B16-F10, MC38, and CT26 cells; assay: In vivo tumor challenge with ex vivo indisulam-treated cells in syngeneic mice; parameters: species or system mouse
Protocol: as §1, §2

CD8^+ T cells = assay: Peptide:H-2K^b tetramer staining of tumor-draining lymph nodes; type: in vivo, mouse; details: B16-F10 tumor-bearing mice, day 14

Row | Compound | mice alive and tumor-free (MC38 tumors) | cell growth in vitro after drug washout (MC38 cells [1]) | tumor growth following engraftment into syngeneic, immune-competent mice (MC38 cells [2]) | growth inhibition with loss of β2-microglobulin in B16-F10 (B16-F10 cells; B2m CRISPR knockout vs control B16-F10, indisulam pretreatment) | in vivo growth inhibition with NK depletion (B16-F10 cells; B16-F10 treated 1 μM 96 hours, NK cell depletion) | in vivo tumor growth inhibition in Rag2 recipients and with T cell depletion (B16-F10 cells; B16-F10 treated 1 μM 96 hours, anti-CD4 and anti-CD8) | tumor growth following engraftment into syngeneic, immunocompetent mice ([3]; cells treated ex vivo 1 μM four days, drug washout) | animal survival ([3]; exposure to increasing drug concentrations (CT26; 10, 100, 1000 nM, 96 hours)) | frequencies of CD8^+ T cells recognizing splicing-derived peptides in tumor DLN (CD8^+ T cells)
1 | CC(C)Oc1ccc(-c2c[nH]cc2CN(C)CCN)cc1 [MS-023] | 25% | minimal effects | durable suppression of tumor growth | – | – | – | – | – | –
2 | NS(=O)(=O)c1ccc(S(=O)(=O)Nc2cccc3c(Cl)c[nH]c23)cc1 [indisulam] | – | – | – | rescued the growth inhibition | did not rescue cell growth | rescued | strikingly durable growth inhibition | improved animal survival | increased frequencies of CD8^+ T cells
